In US11807625B2, “Capsid inhibitors for the prevention of HIV” (Gilead Sciences, Inc., priority 2019, dated 2023):
Like-named read-outs stand apart in the source and are kept apart here.

Test: PK of compound of Formula (Ia) after single subcutaneous dose of solution formulations in beagle dogs
Format: in vivo
Settings: male, beagle, dog, plasma, sc, 12 mg/kg, mean ± SD
Method: Formulations containing the compound of Formula (Ia), or a pharmaceutically acceptable salt thereof, were prepared as solutions and optionally administered subcutaneously or intramuscularly to rats, rabbits, and/or dogs.
A solution of about 400 mg/mL of the compound of Formula (Ia) having 17.00 w/w % water, 36.40 w/w % PEG 300, 35.20 w/w % of a sodium salt of a compound of Formula (Ia), 5.00 w/w % ethanol, and 6.40 w/w % poloxamer 188 was prepared. The solution was administered subcutaneously to male beagle dogs at a dose level of about 12 mg/kg and male Wistar Han rats at a dose level of about 50 mg/kg. The pharmacokinetic profiles were determined, and the results for dogs are summarized in Table and Table, while the results for rats are summarized in Table and Table below.
A solution of about 500 mg/mL of the compound of Formula (Ia) having 14.06 w/w % water, 30.12 w/w % PEG 300, […] of a sodium salt of a compound of Formula (Ia), 5.00 w/w % ethanol, and 6.40 w/w % poloxamer 188 was prepared. The solution was administered subcutaneously to male beagle dogs at a dose level of about 12 mg/kg and male Wistar Han rats at a dose level of about 50 mg/kg. The pharmacokinetic profiles were determined, and the results for dogs are summarized in Table and Table, while the results for rats are summarized in Table and Table below.
A solution of about 300 mg/mL of the compound of Formula (Ia) having 23.33 w/w % water, 48.99 w/w % PEG 300, 26.47 w/w % of a sodium salt of a compound of Formula (Ia), and 1.21 w/w % poloxamer 188 was prepared. The solution was administered subcutaneously to male beagle dogs at a dose level of about 6 mg/kg and male Wistar Han rats at a dose level of about 50 mg/kg. The pharmacokinetic profiles were determined, and the results for dogs are summarized in Table and Table, while the results for rats are summarized in Table and Table below.
A solution of about 400 mg/mL of the compound of Formula (Ia) having 18.80 w/w % water, 40.25 w/w % PEG 300, 34.38 w/w % of a sodium salt of a compound of Formula (Ia), 5.00 w/w % ethanol, and 1.57 w/w % poloxamer 188 was prepared. The solution was administered subcutaneously to male beagle dogs at a dose level of about 12 mg/kg and male Wistar Han rats at a dose level of about 50 mg/kg. The pharmacokinetic profiles were determined, and the results for dogs are summarized in Table and Table, while the results for rats are summarized in Table and Table below.
A solution of about 500 mg/mL of the compound of Formula (Ia) having 16.29 w/w % water, 34.88 w/w % PEG 300, 41.92 w/w % of a sodium salt of a compound of Formula (Ia), 5.00 w/w % ethanol, and 1.91 w/w % poloxamer 188 was prepared. The solution was administered subcutaneously to male beagle dogs at a dose level of about 12 mg/kg and male Wistar Han rats at a dose level of about 50 mg/kg. The pharmacokinetic profiles were determined, and the results for dogs are summarized in Table and Table, while the results for rats are summarized in Table and Table below.
A solution of about 400 mg/mL of the compound of Formula (Ia) having 20.90 w/w % water, 44.72 w/w % PEG 300, and 34.38 w/w % of a sodium salt of a compound of Formula (Ia) was prepared. The solution was administered subcutaneously to male beagle dogs at a dose level of about 12 mg/kg and male Wistar Han rats at a dose level of about 50 mg/kg. The pharmacokinetic profiles were determined, and the results for dogs are summarized in Table and Table, while the results for rats are summarized in Table and Table below.
A solution of about 400 mg/mL of the compound of Formula (Ia) having 19.90 w/w % water, 42.59 w/w % PEG 300, 34.38 w/w % of a sodium salt of a compound of Formula (Ia), and 3.13 w/w % poloxamer 188 was prepared. The solution was administered subcutaneously to male beagle dogs at a dose level of about 12 mg/kg and male Wistar Han rats at a dose level of about 50 mg/kg. […]

[1] = n = 3 dogs, SC 12 mg/kg, solution T, 400 mg/mL
[2] = n = 3 dogs, SC 12 mg/kg, solution U, 500 mg/mL

For `CC(C)(C#Cc1ccc(-c2ccc(Cl)c3c(NS(C)(=O)=O)nn(CC(F)(F)F)c23)c([C@H](Cc2cc(F)cc(F)c2)NC(=O)Cn2nc(C(F)(F)F)c3c2C(F)(F)[C@@H]2C[C@H]32)n1)S(C)(=O)=O` [compound of Formula (Ia)], the AUC(0-t) (male beagle dogs, single SC 12 mg/kg, 400 mg/mL solution Z (3.13% poloxamer 188), n = 3, read-out: AUC0-3024 h) was 175 ± 32 µM·h, the AUC(0-t) (male beagle dogs, single SC 12 mg/kg, 400 mg/mL solution Z (3.13% poloxamer 188), n = 3, read-out: AUC0-3696 h) was 177 ± 31 µM·h and the Cmax (male beagle dogs, single SC 12 mg/kg, 500 mg/mL solution X (5.00% ethanol, 1.91% poloxamer 188), n = 3) was 125 ± 95 nM. The AUC(0-t) (male beagle dogs, single SC 12 mg/kg, 500 mg/mL solution X (5.00% ethanol, 1.91% poloxamer 188), n = 3, read-out: AUC0-24 h) was 0.663 ± 0.157 µM·h, the AUC(0-t) (male beagle dogs, single SC 12 mg/kg, 500 mg/mL solution X (5.00% ethanol, 1.91% poloxamer 188), n = 3, read-out: AUC0-168 h) was 6.01 ± 1.87 µM·h and the AUC(0-t) (male beagle dogs, single SC 12 mg/kg, 500 mg/mL solution X (5.00% ethanol, 1.91% poloxamer 188), n = 3, read-out: AUC0-672 h) was 46.1 ± 32.5 µM·h. For the same compound, the AUC(0-t) (male beagle dogs, single SC 12 mg/kg, 500 mg/mL solution X (5.00% ethanol, 1.91% poloxamer 188), n = 3, read-out: AUC0-1344 h) was 90.8 ± 60 µM·h, the AUC(0-t) (male beagle dogs, single SC 12 mg/kg, 500 mg/mL solution X (5.00% ethanol, 1.91% poloxamer 188), n = 3, read-out: AUC0-1680 h) was 106 ± 68 µM·h and the AUC(0-t) (male beagle dogs, single SC 12 mg/kg, 500 mg/mL solution X (5.00% ethanol, 1.91% poloxamer 188), n = 3, read-out: AUC0-2016 h) was 116 ± 75 µM·h. For the same compound, the AUC(0-t) (male beagle dogs, single SC 12 mg/kg, 500 mg/mL solution X (5.00% ethanol, 1.91% poloxamer 188), n = 3, read-out: AUC0-2253 h) was 124 ± 44 µM·h, the AUC(0-t) (male beagle dogs, single SC 12 mg/kg, 500 mg/mL solution X (5.00% ethanol, 1.91% poloxamer 188), n = 3, read-out: AUC0-2688 h) was 130 ± 83 µM·h and the AUC(0-t) (male beagle dogs, single SC 12 mg/kg, 500 mg/mL solution X (5.00% ethanol, 1.91% poloxamer 188), n = 3, read-out: AUC0-3024 h) was 135 ± 86 µM·h. It also gave an AUC(0-t) (male beagle dogs, single SC 12 mg/kg, 500 mg/mL solution X (5.00% ethanol, 1.91% poloxamer 188), n = 3, read-out: AUC0-4032 h) of 145 ± 90 µM·h, an AUC(0-t) (male beagle dogs, single SC 12 mg/kg, 500 mg/mL solution X (5.00% ethanol, 1.91% poloxamer 188), n = 3, read-out: AUC0-4368 h) of 148 ± 91 µM·h and an AUC(0-inf) [1] of 219 ± 54 µM·h. For the same compound, the Cmax [1] was 353 ± 148 nM, the Tmax [1] was 13 ± 8.54 days and the half-life [1] was 14.7 days. It also gave an AUC(0-t) (n = 3 dogs, SC 12 mg/kg, solution T, 400 mg/mL, read-out: AUC0-24 h) of 2.64 ± 0.5 µM·h, an AUC(0-t) (n = 3 dogs, SC 12 mg/kg, solution T, 400 mg/mL, read-out: AUC0-168 h) of 36 ± 26.2 µM·h and an AUC(0-t) (n = 3 dogs, SC 12 mg/kg, solution T, 400 mg/mL, read-out: AUC0-336 h) of 76.1 ± 46.7 µM·h. For the same compound, the AUC(0-t) (n = 3 dogs, SC 12 mg/kg, solution T, 400 mg/mL, read-out: AUC0-672 h) was 148 ± 51 µM·h, the AUC(0-t) (n = 3 dogs, SC 12 mg/kg, solution T, 400 mg/mL, read-out: AUC0-1334 h) was 197 ± 48 µM·h and the AUC(0-t) (n = 3 dogs, SC 12 mg/kg, solution T, 400 mg/mL, read-out: AUC0-2016 h) was 213 ± 53 µM·h. For the same compound, the AUC(0-t) (n = 3 dogs, SC 12 mg/kg, solution T, 400 mg/mL, read-out: AUC0-2352 h) was 216 ± 54 µM·h, the AUC(0-inf) [2] was 141 ± 14 µM·h and the Cmax [2] was 175 ± 29 nM. It also gave a Tmax [2] of 14.3 ± 11.5 days, a half-life [2] of 18.3 days and an AUC(0-t) (n = 3 dogs, SC 12 mg/kg, solution U, 500 mg/mL, read-out: AUC0-24 h) of 1.8 ± 0.85 µM·h. For the same compound, the AUC(0-t) (n = 3 dogs, SC 12 mg/kg, solution U, 500 mg/mL, read-out: AUC0-168 h) was 12.9 ± 5.1 µM·h, the AUC(0-t) (n = 3 dogs, SC 12 mg/kg, solution U, 500 mg/mL, read-out: AUC0-336 h) was 33.9 ± 14.2 µM·h and the AUC(0-t) (n = 3 dogs, SC 12 mg/kg, solution U, 500 mg/mL, read-out: AUC0-672 h) was 78.5 ± 11.4 µM·h. It also gave an AUC(0-t) (n = 3 dogs, SC 12 mg/kg, solution U, 500 mg/mL, read-out: AUC0-1334 h) of 118 ± 6 µM·h, an AUC(0-t) (n = 3 dogs, SC 12 mg/kg, solution U, 500 mg/mL, read-out: AUC0-2016 h) of 133 ± 11 µM·h and an AUC(0-t) (n = 3 dogs, SC 12 mg/kg, solution U, 500 mg/mL, read-out: AUC0-2352 h) of 136 ± 12 µM·h. For the same compound, the Cmax (n = 3 dogs, SC 12 mg/kg, solution W, 400 mg/mL) was 200 ± 90 nM, the AUC(0-t) (n = 3 dogs, SC 12 mg/kg, solution W, 400 mg/mL, read-out: AUC0-24 h) was 0.505 ± 0.194 µM·h and the AUC(0-t) (n = 3 dogs, SC 12 mg/kg, solution W, 400 mg/mL, read-out: AUC0-168 h) was 6.82 ± 3.38 µM·h. It also gave an AUC(0-t) (n = 3 dogs, SC 12 mg/kg, solution W, 400 mg/mL, read-out: AUC0-672 h) of 65.1 ± 43.1 µM·h, an AUC(0-t) (n = 3 dogs, SC 12 mg/kg, solution W, 400 mg/mL, read-out: AUC0-1344 h) of 123 ± 54 µM·h and an AUC(0-t) (n = 3 dogs, SC 12 mg/kg, solution W, 400 mg/mL, read-out: AUC0-1680 h) of 142 ± 50 µM·h. The AUC(0-t) (n = 3 dogs, SC 12 mg/kg, solution W, 400 mg/mL, read-out: AUC0-2016 h) was 154 ± 47 µM·h, the AUC(0-t) (n = 3 dogs, SC 12 mg/kg, solution W, 400 mg/mL, read-out: AUC0-2253 h) was 164 ± 44 µM·h and the AUC(0-t) (n = 3 dogs, SC 12 mg/kg, solution W, 400 mg/mL, read-out: AUC0-2688 h) was 170 ± 42 µM·h. The AUC(0-t) (n = 3 dogs, SC 12 mg/kg, solution W, 400 mg/mL, read-out: AUC0-3024 h) was 174 ± 41 µM·h, the AUC(0-t) (n = 3 dogs, SC 12 mg/kg, solution W, 400 mg/mL, read-out: AUC0-4032 h) was 181 ± 39 µM·h and the AUC(0-t) (n = 3 dogs, SC 12 mg/kg, solution W, 400 mg/mL, read-out: AUC0-4368 h) was 182 ± 38 µM·h.
